Reference: the supplement of paper PMC4862054
One block for each compound: values may come before it.

How the values were obtained:
Conditions in all cases: 72 h
BT-549 [1] = test system: BT-549
Method in brief: (§1)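 The plates used were 384-well plates holding compound at 5 concentrations in 10-fold steps across a compound-specific 10,000-fold range, into which breast cancer cell lines were seeded in 20 µl suspension. Following 72 h incubation, CellTox Green fluorescence was read at 485/520 nm, and CellTiter-Glo luminescence was read after 10 min at room temperature. Normalisation on each plate used 0.1 % DMSO and a positive kill control. Dose-response curves gave the EC50, which was censored at the top concentration.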

CAL-120 [2] = test system: CAL-120
Method in brief: as §1

CAL-148 [3] = test system: CAL-148
Method in brief: as §1

CAL-85-1 [4] = test system: CAL-85-1
Method in brief: as §1

DU-4475 [5] = test system: DU-4475
Method in brief: as §1

HCC1143 [6] = test system: HCC1143
Method in brief: as §1

HCC1599 [7] = test system: HCC1599
Method in brief: as §1

HCC1937 [8] = test system: HCC1937
Method in brief: as §1

HDQ-P1 [9] = test system: HDQ-P1
Method in brief: as §1

Hs578T [10] = test system: Hs578T
Method in brief: as §1

MCF-10A [11] = test system: MCF-10A
Method in brief: as §1

MDA-MB-231 [12] = test system: MDA-MB-231
Method in brief: as §1

MDA-MB-436 [13] = test system: MDA-MB-436
Method in brief: as §1

MDA-MB-453 = test system: MDA-MB-453
Method in brief: as §1

MFM-223 [14] = test system: MFM-223
Method in brief: as §1

SK-BR-3 [15] = test system: SK-BR-3
Method in brief: as §1

CAL-51 [16] = test system: CAL-51
Method in brief: (§2)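 Rows with a drug sensitivity score of zero were dropped, and EC50 was taken from the fitted percent-inhibition dose-response curve, censored at the highest concentration. Data were normalised on each plate to vehicle and a positive kill control and checked by Z'-factor. The assay seeded breast cancer cell lines in 20 µl onto 384-well plates pre-loaded with compound in 5 µl medium for 72 h, then added 2.5 µl CellTiter-Blue for 2 h at 37 °C and read fluorescence at 560/590 nm.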

CAL-85-1 [17] = test system: CAL-85-1; remark: listed apart in the source
Method in brief: as §2

DU-4475 [18] = test system: DU-4475; remark: listed apart in the source
Method in brief: as §2

HDQ-P1 [19] = test system: HDQ-P1; remark: listed apart in the source
Method in brief: as §2

BT-474 [20] = test system: BT-474
Method in brief: as §2

BT-549 [21] = test system: BT-549; remark: listed apart in the source
Method in brief: as §2

HCC1143 [22] = test system: HCC1143; remark: listed apart in the source
Method in brief: as §2

HCC1599 [23] = test system: HCC1599; remark: listed apart in the source
Method in brief: as §2

Hs578T [24] = test system: Hs578T; remark: listed apart in the source
Method in brief: as §2

MDA-MB-436 [25] = test system: MDA-MB-436; remark: listed apart in the source
Method in brief: as §2

MDA-MB-468 [26] = test system: MDA-MB-468
Method in brief: as §2

MFM-223 [27] = test system: MFM-223; remark: listed apart in the source
Method in brief: as §2

SK-BR-3 [28] = test system: SK-BR-3; remark: listed apart in the source
Method in brief: as §2

BT-474 [29] = test system: BT-474; remark: listed apart in the source
Procedure: (§3)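 Drug sensitivity and resistance testing (DSRT) of breast cancer cell lines in 384-well plates, 5 concentrations in 10-fold dilutions over a compound-specific 10,000-fold range. After 72 h, cytotoxicity was read by CellTox Green fluorescence and viability by CellTiter-Glo luminescence (multiplexed), normalised to DMSO and benzethonium chloride controls. EC50 is the inflection point of the fitted dose-response curve (bottom asymptote free, so it can be relative for partial curves) and is censored at the highest tested concentration. Rows with DSS 0 (no meaningful response) were excluded.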

CAL-120 [30] = test system: CAL-120; remark: listed apart in the source
Procedure: as §3

CAL-148 [31] = test system: CAL-148; remark: listed apart in the source
Procedure: as §3

CAL-51 [32] = test system: CAL-51; remark: listed apart in the source
Procedure: as §3

CAL-85-1 [33] = test system: CAL-85-1; remark: listed apart in the source
Procedure: as §3

DU-4475 [34] = test system: DU-4475; remark: listed apart in the source
Procedure: as §3

HCC1143 [35] = test system: HCC1143; remark: listed apart in the source
Procedure: as §3

HCC1937 [36] = test system: HCC1937; remark: listed apart in the source
Procedure: as §3

HDQ-P1 [37] = test system: HDQ-P1; remark: listed apart in the source
Procedure: as §3

Hs578T [38] = test system: Hs578T; remark: listed apart in the source
Procedure: as §3

MCF-10A [39] = test system: MCF-10A; remark: listed apart in the source
Procedure: as §3

MDA-MB-231 [40] = test system: MDA-MB-231; remark: listed apart in the source
Procedure: as §3

MDA-MB-468 [41] = test system: MDA-MB-468; remark: listed apart in the source
Procedure: as §3

EC50, CellTiter-Glo (BT-549 [1]): 0.00813 µM
EC50, CellTiter-Glo (HCC1143 [6]): 0.0348 µM
EC50, CellTiter-Glo (HCC1599 [7]): 0.0915 µM
EC50, CellTiter-Glo (HCC1937 [8]): 0.0441 µM
EC50, CellTiter-Glo (MDA-MB-231 [12]): 0.0462 µM
EC50, CellTiter-Glo (MDA-MB-436 [13]): 0.0113 µM
EC50, CellTiter-Glo (MDA-MB-453): 0.0198 µM
EC50, CellTiter-Glo (SK-BR-3 [15]): 0.011 µM
EC50, CellTiter-Blue viability (BT-474 [20]): 0.0229 µM
EC50, CellTiter-Blue viability (BT-549 [21]): 0.00608 µM
EC50, CellTiter-Blue viability (HCC1143 [22]): 0.0262 µM
EC50, CellTiter-Blue viability (HCC1599 [23]): 0.0174 µM
EC50, CellTiter-Blue viability (MDA-MB-436 [25]): 0.0199 µM
EC50, CellTiter-Blue viability (MDA-MB-468 [26]): 0.0605 µM
EC50, CellTiter-Blue viability (SK-BR-3 [28]): 0.00815 µM
SMILES: CO[C@H]1/C=C\C=C(/C)C(=O)NC2=CC(=O)C(NCCN(C)C)=C(C[C@@H](C)C[C@H](OC)[C@H](O)[C@@H](C)/C=C(\C)[C@@H]1OC(N)=O)C2=O [Alvespimycin]
EC50, CellTiter-Glo (CAL-120 [2]): 0.0462 µM
EC50, CellTiter-Glo (CAL-148 [3]): 0.0387 µM
EC50, CellTiter-Glo (CAL-85-1 [4]): 0.0418 µM
EC50, CellTiter-Glo (DU-4475 [5]): 0.034 µM
EC50, CellTiter-Glo (HDQ-P1 [9]): 0.0302 µM
EC50, CellTiter-Glo (Hs578T [10]): 0.0457 µM
EC50, CellTiter-Glo (MCF-10A [11]): 0.0408 µM
EC50, CellTiter-Glo (MFM-223 [14]): 0.0176 µM
EC50, CellTiter-Blue viability (CAL-51 [16]): 0.0533 µM
EC50, CellTiter-Blue viability (CAL-85-1 [17]): 0.0352 µM
EC50, CellTiter-Blue viability (DU-4475 [18]): 0.0153 µM
EC50, CellTiter-Blue viability (HDQ-P1 [19]): 0.0226 µM
EC50, CellTiter-Blue viability (Hs578T [24]): 0.00538 µM
EC50, CellTiter-Blue viability (MFM-223 [27]): 0.00878 µM
EC50, CellTox Green (BT-474 [29]): 0.0773 µM
EC50, CellTox Green (CAL-120 [30]): > 1 µM
EC50, CellTox Green (CAL-148 [31]): 0.045 µM
EC50, CellTox Green (CAL-51 [32]): 0.0358 µM
EC50, CellTox Green (CAL-85-1 [33]): 0.187 µM
EC50, CellTox Green (DU-4475 [34]): 0.0266 µM
EC50, CellTox Green (HCC1143 [35]): 0.138 µM
EC50, CellTox Green (HCC1937 [36]): 0.781 µM
EC50, CellTox Green (HDQ-P1 [37]): 0.0122 µM
EC50, CellTox Green (Hs578T [38]): 0.242 µM
EC50, CellTox Green (MCF-10A [39]): 0.0379 µM
EC50, CellTox Green (MDA-MB-231 [40]): 0.171 µM
EC50, CellTox Green (MDA-MB-468 [41]): 0.682 µM

EC50, CellTiter-Blue viability (BT-474 [20]): 3.54 µM
EC50, CellTiter-Blue viability (BT-549 [21]): 7.18 µM
EC50, CellTiter-Blue viability (HCC1143 [22]): 8.17 µM
EC50, CellTiter-Blue viability (MDA-MB-436 [25]): 0.275 µM
EC50, CellTiter-Blue viability (MDA-MB-468 [26]): 3.64 µM
EC50, CellTiter-Blue viability (SK-BR-3 [28]): 4.16 µM
SMILES: C[C@@H](Oc1cc(-c2cnn(C3CCNCC3)c2)cnc1N)c1c(Cl)ccc(F)c1Cl [Crizotinib]
EC50, CellTiter-Blue viability (CAL-51 [16]): 3.14 µM
EC50, CellTiter-Blue viability (CAL-85-1 [17]): 6.53 µM
EC50, CellTiter-Blue viability (DU-4475 [18]): 4.94 µM
EC50, CellTiter-Blue viability (HDQ-P1 [19]): 6.97 µM
EC50, CellTiter-Blue viability (Hs578T [24]): 7.69 µM
EC50, CellTiter-Blue viability (MFM-223 [27]): 3.72 µM
EC50, CellTox Green (HDQ-P1 [37]): > 1 µM
